Reference: patent publication US9034825B2, “Treatment of myocardial injury with humanin analogs” (Albert Einstein College of Medicine of Yeshiva University, priority 2007, dated 2015)

Assays:
[1] = tested on: pAKT and pSTAT-3 in hepatocytes; experiment: Western blot of Phospho-STAT3 and Phospho-AKT in primary hepatocytes; format: cell-based, rat
Method: (§1) Single-cell suspensions of hepatocytes were obtained from perfusions of Sprague-Dawley rats using the procedure of Berry and Friend (1969) and the perfusion mixture of Leffert et al (1979). Hepatocyte glucose production was estimated after a 24 hr treatment with HN, F6A and saline as described before (Berg et al. 2001). In a separate set of experiment, hepatocytes were lysed, and protein extracted in RIPA lysis buffer at 30, 60 and 360 min post treatment with FIN, F6A and saline. The cell lysates were then subject to western blotting for Phospho-STAT3 (Tyr705), total-STAT3, Phospho-AKT (Ser473), and total-AKT expression (antibodies purchased from Cell Signaling, #9131, #9132, #9271, #9272).

primary hepatocytes = experiment: Glucose production of primary isolated hepatocytes; format: cell-based; details: rat hepatocytes explant cultures
Method: as §1

[2] = tested on: signaling kinases in hypothalamus and liver; experiment: Western blot of other signaling in hypothalamus and liver after ICV infusion; format: in vivo, rat; details: ICV HN
Method: (§2) The indicated tissues were homogenized in 20 mM MOPS, 2 mM EGTA, 5 mM EDTA, 30 mM sodium fluoride, 40 mM beta-glycerophosphate, 10 mM sodium pyrophosphate, 2 mM orthovanadate, 0.5% NP-40 and complete protease inhibitor cocktail (Roche, Indianapolis, Ind., USA) and centrifuged at 12,000 g for 15 min and the supernatant was harvested while carefully avoiding the lipid layer on top. Protein concentration was measured with a BCA protein quantification kit (Pierce, Rockford, Ill., USA). Protein extracts were separated on 4-12% NuPAGE (Invitrogen, Carlsbad, Calif., USA) gels and were blotted onto Immobilon FL PVDF (Millipore, Billerica, Mass., USA). […] After three washes in TBS-T and a final wash in TBS the blots were scanned using the LI-COR Odyssey (LI-COR, Lincoln, Nebr., USA) and quantified using Odyssey 2.0 software based on direct fluorescence measurement.
(§3) For acute signaling studies, rats were injected ICV with either aCSF, 20 μg of HN or F6A (dissolved in aCSF) over 5 min, and sacrificed 30 min later. […] Samples were also obtained from these tissues at the end of the clamp and western blot analysis was performed as described previously (Muzumdar et al. 2003) The blots were scanned using the LI-COR Odyssey (LI-COR, Lincoln, Nebr., USA) and quantified using Odyssey 2.0 software based on direct fluorescence measurement. […]

[3] = tested on: phospho STAT-3 in hypothalamus; experiment: Western blot of hypothalamic STAT-3 phosphorylation after ICV infusion; format: in vivo, rat; details: within an hour of ICV HN infusion
Method: as §2, §3

Sprague-Dawley rats = experiment: Intravenous infusion of humanin or analogs during hyperinsulinemic clamp; format: in vivo, rat
Method: To study the acute effects of an infusion of IGFBP-3, two groups of awake, unstressed, chronically catheterized Sprague-Dawley rats (˜300 g) were studied for 300 min (n=3 in each group) under hyperinsulinemic clamp (as previously described). From 120 min the rats received a primed continuous infusion of humanin (0.375 mg/kg/hr) or saline (control) for an additional 2 h. Plasma samples for determination of [3H]glucose and [3H] water specific activities were obtained at 10-min intervals during the basal and clamp periods. Steady state conditions for the plasma glucose concentration and specific activity were achieved within 90 min in all the studies. Plasma samples for determination of HN, insulin and FFA concentrations were collected at 30-min intervals throughout the study. All determinations were also performed on portal vein blood obtained at the end of the experiments. The total amount of blood drawn during the entire study for various assays is ˜3 cc. After separation of plasma (subsequently used for analysis), the red blood cells were reconstituted in saline and infused back into the animal.
To determine if peripheral infusion of the humanin analog colivelin affects insulin action, saline or colivelin (one hundredth of the dose of humanin) was infused intravenously during hyperinsulinemic clamp to two groups of rats that were matched for body weight (˜300 gm), visceral fat (˜3.5 grams), basal glucose (˜135 mg % or 7 mM). Colivelin increased hepatic insulin sensitivity by 33% while peripheral glucose uptake was unchanged (FIG. 14).
A primed-continuous ICV infusion of HN, F6A-HN (total dose of 20 μg), STAT-3 inhibitor (75 pmol) (Buettner et al. 2006), or aCSF was initiated at t=0 and maintained for the remainder of the experiment (FIG. 15A). Pancreatic insulin-clamp studies or euglycemic-hyperinsulinemic clamps were performed in conscious, unrestrained, catheterized mice for last 120 minutes as described previously (Bahar et al. 2006, Muzumdar et al. 2006). In the intra-venous group, HN, F6A, Colivelin, and HNGF6A were infused intravenously and hyperinsulinemic clamps were performed as described previously (Loeb et al. 2005). Estimation of glucose, glucose fluxes, insulin, FFA were done as described previously (Loeb et al. 2005). HN measurements were performed by an in-house, ELISA utilizing affinity purified humanin antibodies that recognize both human and rat humanin and has a limit of detection of 0.1 ng/ml (Hwang, and Cohen personal communication).

[4] = IV during hyperinsulinemic clamp, humanin 0.375 mg/kg/hr, colivelin one hundredth of the dose of humanin

CC[C@H](C)[C@H](NC(=O)[C@H](CCC(=O)O)NC(=O)[C@H](CO)NC(=O)[C@@H](NC(=O)[C@H](CC(C)C)NC(=O)[C@H](CC(C)C)NC(=O)[C@H](CC(C)C)NC(=O)[C@H](CC(C)C)NC(=O)[C@H](CS)NC(=O)[C@H](CO)NC(=O)[C@H](Cc1ccccc1)NC(=O)CNC(=O)[C@H](CCCNC(=N)N)NC(=O)[C@@H]1CCCN1C(=O)[C@H](C)NC(=O)[C@@H](N)CCSC)[C@@H](C)O)C(=O)N[C@@H](CC(=O)O)C(=O)N[C@@H](CC(C)C)C(=O)N1CCC[C@H]1C(=O)N[C@H](C(=O)N[C@@H](CCCCN)C(=O)N[C@@H](CCCNC(=N)N)C(=O)N[C@@H](CCCNC(=N)N)C(=O)N[C@@H](C)C(=O)O)C(C)C [Humanin, maprgfscll lltseidlpv krra]
pAKT or pSTAT-3 in hepatocytes [1]: did not elicit significant changes
glucose production rates with and without HN (primary hepatocytes): not different
liver pAKT, PGC-1b, FAS, p38, CREB, ACC vs control groups [2]: no significant differences
phosphorylation in other signaling kinases in the hypothalamus including AKT [2]: Unchanged levels of phosphorylation
increase in STAT-3 phosphorylation in hypothalamic tissues [3]: 10 fold
HGP / hepatic insulin action (Sprague-Dawley rats; IV during hyperinsulinemic clamp, HN 0.375 mg/kg/hr, Colivelin 0.00375 mg/kg/hr): trend towards decreased HGP
increase in hepatic insulin sensitivity (Sprague-Dawley rats; [4]): 80%
peripheral glucose uptake (Sprague-Dawley rats; [4]): unchanged
levels in rat CSF after peripheral infusion, range (Sprague-Dawley rats; peripherally infused humanin): 0 to 40 ng/mL
